This is an account of results in patent US20190071416A1, “COMPOUNDS FOR TREATMENT OF CANCER AND EPIGENETICS” (Agency For Science, Technology and Research, priority 2015, published 2019).

In this assay the target is T1, SMYD3 (Homo sapiens, UniProt Q9H7B4).
T1 sequence (Q9H7B4 1-428): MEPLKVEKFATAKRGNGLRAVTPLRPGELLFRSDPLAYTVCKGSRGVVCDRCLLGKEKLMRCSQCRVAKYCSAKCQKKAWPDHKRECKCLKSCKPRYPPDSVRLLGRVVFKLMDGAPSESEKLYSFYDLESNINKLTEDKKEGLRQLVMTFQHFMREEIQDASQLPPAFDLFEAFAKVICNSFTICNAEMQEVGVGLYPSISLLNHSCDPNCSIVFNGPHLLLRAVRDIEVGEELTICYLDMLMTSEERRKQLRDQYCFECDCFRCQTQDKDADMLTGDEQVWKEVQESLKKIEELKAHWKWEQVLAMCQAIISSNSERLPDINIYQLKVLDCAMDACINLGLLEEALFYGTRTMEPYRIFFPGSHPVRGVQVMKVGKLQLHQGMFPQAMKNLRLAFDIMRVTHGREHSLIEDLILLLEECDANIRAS
Nature of the assay: SMYD3 biochemical assay (MTase-Glo, MAP3K2 peptide substrate). The following applies: for IC50: read-out: IC50. Here is the method: A SMYD3 enzymatic assay was developed using Promega's Methyltransferase-Glo™ reagents. In the assay, SMYD3 catalyzes the methylation of the MAP3K2 peptide substrate by transferring a methyl group from SAM to MAP3K2 peptide and further converts the SAM to SAH. The SMYD3 methyltransferase activity is measured based on the amount of SAH produced from the reaction through the use of coupling enzymes that convert the SAH to ATP. The MTase-Glo detection solution then catalyzes the formation of light from ATP.
A final concentration of 1.0 μM and 10 μM SAM and MAP3K2 peptide were added and further incubated for 30 min at room temperature before adding the MTase Glo and detection reagent. Reaction signals were detected using microplate readers on luminescent mode (Safire Tecan). The IC50 was determined by non-linear regression, using GraphPad Prism version, 5.03.

Setting [1] is: Table 3, MTase assay, MAP3K2 peptide substrate.

Structures are written as SMILES. Where two headings read alike, the source gives them in different places.

The term IC50 denotes the concentration at which inhibition is half-maximal.

In the case of `CCCOC(=O)N1CCN(C(=O)c2ccc3c(Cl)cc(C4(C)CC4)nc3c2)CC1` [B133, Propyl 4-(4-chloro-2-(1-methylcyclopropyl)quinoline-7-carbonyl)piperazine-1-carboxylate], the IC50 under setting [1] was 1400 nM.
For the molecule `C[C@@H]1CN(C(=O)c2ccc3c(Cl)cc(-c4ccc(C(C)(C)O)cc4)nc3c2)CCN1C(=O)OCCF` [B267, 2-Fluoroethyl (R)-4-(4-chloro-2-(4-(2-hydroxypropan-2-yl)phenyl)quinoline-7-carbonyl)-2-methylpiperazine-1-carboxylate], the IC50 under setting [1] worked out at 150 nM.
As for `CCCOC(=O)N1CCN(C(=O)c2ccc3c(Cl)cc(-c4ccccc4)nc3c2)CC1` [B002, Propyl 4-(4-chloro-2-phenylquinoline-7-carbonyl)piperazine-1-carboxylate], under setting [1], the IC50 stood at 410 nM.
Turning to `CCCOC(=O)N1CCN(C(=O)c2ccc3c(Cl)cc(-c4ccnc(C)c4)nc3c2)CC1` [B115, Propyl 4-(4-chloro-2-(2-methylpyridin-4-yl)quinoline-7-carbonyl)piperazine-1-carboxylate], under setting [1], the IC50 is 780 nM.
For the molecule `C[C@@H]1CN(C(=O)c2ccc3c(Cl)cc(-c4ccc(C(C)(C)O)cc4)nc3c2)CCN1C(=O)c1cn(C2CC2)nn1` [D006, (R)-(4-Chloro-2-(4-(2-hydroxypropan-2-yl)phenyl)quinolin-7-yl)(4-(1-cyclopropyl-1H-1,2,3-triazole-4-carbonyl)-3-methylpiperazin-1-yl)methanone], the IC50 under setting [1] turned out to be 52 nM.
On the same count and under the same terms, for `CCCOC(=O)N1CCN(C(=O)c2ccc3c(Cl)cc(-c4cnn(CC(F)(F)F)c4)nc3c2)C[C@H]1C` [B275, Propyl (R)-4-(4-chloro-2-(1-(2,2,2-trifluoroethyl)-1H-pyrazol-4-yl)quinoline-7-carbonyl)-2-methylpiperazine-1-carboxylate] the value was 34 nM; for `CCCOC(=O)N1C2CCCC1CN(C(=O)c1ccc3c(Cl)c4c(nc3c1)CCCC4)C2` [A013, Propyl 3-(9-chloro-5,6,7,8-tetrahydroacridine-3-carbonyl)-3,9-diazabicyclo[3.3.1]nonane-9-carboxylate], 190 nM.
Take `NC(=O)C1CCN(CC(=O)Nc2ccc(Br)cc2)CC1` [X1, reference compound]: the “activity against SMYD3” value is “inactive”. For the same molecule, the IC50 (Table 4, prior art compounds) is greater than 250000 nM.
For the molecule `CCCOC(=O)N1CCN(C(=O)c2ccc3c(Cl)c4c(nc3c2)CC(c2ccc(F)cn2)CC4)C[C@@H]1C` (stereo partly drawn) [A097, Propyl (2S)-4-(9-chloro-6-(5-fluoropyridin-2-yl)-5,6,7,8-tetrahydroacridine-3-carbonyl)-2-methylpiperazine-1-carboxylate], the IC50 under setting [1] worked out at 170 nM.
The same measure, in the same setting: with `CCCOC(=O)N1CCN(C(=O)c2ccc3c(Cl)c4c(nc3c2)CC(c2ccnc(C)c2)CC4)CC1` (stereo not shown) [A104, Propyl 4-(9-chloro-6-(2-methylpyridin-4-yl)-5,6,7,8-tetrahydroacridine-3-carbonyl)piperazine-1-carboxylate] the figure was 83 nM; with `CCCOC(=O)N1CCN(C(=O)c2ccc3c(Cl)c4c(nc3c2)CC(C)CC4)CC1` (stereo not shown) [A022, Propyl 4-(9-chloro-6-methyl-5,6,7,8-tetrahydroacridine-3-carbonyl)piperazine-1-carboxylate], 1000 nM.
Still for that read-out and setting: with `CCCOC(=O)N1CCN(C(=O)c2ccc3c(Cl)cc(-c4ccc(O)c(F)c4)nc3c2)C[C@@H]1C` [B192, Propyl (S)-4-(4-chloro-2-(3-fluoro-4-hydroxyphenyl)quinoline-7-carbonyl)-2-methylpiperazine-1-carboxylate] the figure was 75 nM; with `CCCOC(=O)N1CCN(C(=O)c2ccc3c(Cl)c4c(nc3c2)CC(CCN(C)C)CC4)[C@H](C)C1` (stereo partly drawn) [A120, Propyl (3R)-4-(9-chloro-6-(2-(dimethylamino)ethyl)-5,6,7,8-tetrahydroacridine-3-carbonyl)-3-methylpiperazine-1-carboxylate], 120 nM.
As to `CCCOC(=O)N1CCN(C(=O)c2ccc3c(Cl)cc(-c4cccc(C(N)=O)c4)nc3c2)C[C@H]1C` [B053, Propyl (R)-4-(2-(3-carbamoylphenyl)-4-chloroquinoline-7-carbonyl)-2-methylpiperazine-1-carboxylate], the IC50 under setting [1] was 180 nM.
Still for that read-out and setting: with `CCCOC(=O)N1CC2CCCC(C1)N2C(=O)c1ccc2c(Cl)c3c(nc2c1)CCCC3` [A015, Propyl 9-(9-chloro-5,6,7,8-tetrahydroacridine-3-carbonyl)-3,9-diazabicyclo[3.3.1]nonane-3-carboxylate] the figure was 320 nM; with `CCCOC(=O)N1CCN(C(=O)c2ccc3c(Cl)c4c(nc3c2)CC(c2ccccn2)CC4)[C@@H](C)C1` (stereo partly drawn) [A086, Propyl (3S)-4-(9-chloro-6-(pyridin-2-yl)-5,6,7,8-tetrahydroacridine-3-carbonyl)-3-methylpiperazine-1-carboxylate], 95 nM; with `CCCOC(=O)N1CCN(C(=O)c2ccc3c(Cl)cc(-c4ccnn4C)nc3c2)[C@@H](C)C1` [B091, Propyl (S)-4-(4-chloro-2-(1-methyl-1H-pyrazol-5-yl)quinoline-7-carbonyl)-3-methylpiperazine-1-carboxylate], 7500 nM.
Take `CCCOC(=O)N1CCN(C(=O)c2ccc3c(Cl)c(F)c(-c4ccn(C)c4)nc3c2)CC1` [B262, Propyl 4-(4-chloro-3-fluoro-2-(1-methyl-1H-pyrrol-3-yl)quinoline-7-carbonyl)piperazine-1-carboxylate]: the IC50 under setting [1] stood at 390 nM.
On to `CCCOC(=O)N1CCN(C(=O)c2ccc3c(Cl)cc(-c4ccc5ncn(C)c5c4)nc3c2)CC1` [B207, Propyl 4-(4-chloro-2-(1-methyl-1H-benzo[d]imidazol-6-yl)quinoline-7-carbonyl)piperazine-1-carboxylate], for which, under setting [1], the IC50 was 60 nM.
Consider `CCCOC(=O)N1CCN(C(=O)c2ccc3c(Cl)c4c(nc3c2)CC(c2ccccn2)CC4)C[C@@H]1C` (stereo partly drawn) [A073, Propyl (2S)-4-(9-chloro-6-(pyridin-2-yl)-5,6,7,8-tetrahydroacridine-3-carbonyl)-2-methylpiperazine-1-carboxylate], for which, under setting [1], the IC50 was 150 nM.
Same read-out and setting: with `CCCOC(=O)N1CCN(C(=O)c2ccc3c(Cl)c4c(nc3c2)CC(c2ccnc(C(N)=O)c2)CC4)CC1` (stereo not shown) [A139, Propyl 4-(6-(2-carbamoylpyridin-4-yl)-9-chloro-5,6,7,8-tetrahydroacridine-3-carbonyl)piperazine-1-carboxylate] the figure was 350 nM.
Still for that read-out and setting: for `CCCOC(=O)N1CCN(C(=O)c2ccc3c(Cl)cc(-c4ccc(N5CCCC5)cc4)nc3c2)C[C@H]1C` [B075, Propyl (R)-4-(4-chloro-2-(4-(pyrrolidin-1-yl)phenyl)quinoline-7-carbonyl)-2-methylpiperazine-1-carboxylate] the value was 440 nM; for `CCCOC(=O)N1CCN(C(=O)c2ccc3c(Cl)c4c(nc3c2)CCCC4)C2(CC2)C1` [A037, Propyl 4-(9-chloro-5,6,7,8-tetrahydroacridine-3-carbonyl)-4,7-diazaspiro[2.5]octane-7-carboxylate], 8400 nM.
As to `CCCOC(=O)N1CCN(C(=O)c2ccc3c(Cl)c4c(nc3c2)CC(C(=O)OC)CC4)CC1` (stereo not shown) [A044, Methyl 9-chloro-6-(4-(propoxycarbonyl)piperazine-1-carbonyl)-1,2,3,4-tetrahydroacridine-3-carboxylate], the IC50 under setting [1] was 620 nM.
As to `CCCOC(=O)N1CCN(C(=O)c2ccc3c(Cl)c4c(nc3c2)CC(c2ccncc2)CC4)[C@H](C)C1` (stereo partly drawn) [A093, Propyl (3R)-4-(9-chloro-6-(pyridin-4-yl)-5,6,7,8-tetrahydroacridine-3-carbonyl)-3-methylpiperazine-1-carboxylate], under setting [1], the IC50 is 100 nM.
With `CCCOC(=O)N1CCN(C(=O)c2ccc3c(Cl)c4c(nc3c2)CC(CN)CC4)CC1` (stereo not shown) [A028, Propyl 4-(6-(aminomethyl)-9-chloro-5,6,7,8-tetrahydroacridine-3-carbonyl)piperazine-1-carboxylate], the IC50 under setting [1] was found to be 380 nM.
For the molecule `CCCOC(=O)N1CCN(C(=O)c2ccc3c(Cl)c4c(nc3c2)CC(c2ccc(F)cn2)CC4)CC1` (stereo not shown) [A094, Propyl 4-(9-chloro-6-(5-fluoropyridin-2-yl)-5,6,7,8-tetrahydroacridine-3-carbonyl)piperazine-1-carboxylate], under setting [1], the IC50 is 140 nM.
On to `CCCOC(=O)N1CCN(C(=O)c2ccc3c(Cl)cc(-c4ccc5cn[nH]c5c4)nc3c2)CC1` [B129, Propyl 4-(4-chloro-2-(1H-indazol-6-yl)quinoline-7-carbonyl)piperazine-1-carboxylate], for which the IC50 under setting [1] turned out to be 87 nM.
Still for that read-out and setting: with `CCCOC(=O)N1CCN(C(=O)c2ccc3c(Cl)cc(-c4ccc(C(F)(F)F)cc4)nc3c2)CC1` [B066, Propyl 4-(4-chloro-2-(4-(trifluoromethyl)phenyl)quinoline-7-carbonyl)piperazine-1-carboxylate] the figure was 3700 nM.
With `CCCOC(=O)N1CCN(C(=O)c2ccc3c(Cl)cc(-c4cnc5[nH]c(C)cc5c4)nc3c2)CC1` [B175, Propyl 4-(4-chloro-2-(2-methyl-1H-pyrrolo[2,3-b]pyridin-5-yl)quinoline-7-carbonyl)piperazine-1-carboxylate], under setting [1], the IC50 stood at 400 nM.
